Test results published in patent US10597388B2, “Pyridazinone herbicides” (FMC CORPORATION, priority 2014, dated 2020).

Legend:
Assay in all cases: Test C greenhouse herbicide test, pre- and postemergence
Assay type in all cases: in vivo
[1] = tested on: pigweed (Amaranthus retroflexus)
Procedure, shortened: (§1)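 Percent-control ratings (0 none, 100 complete) came from visual comparison with controls held alongside in the greenhouse for 13–15 d. Treatments covered soil application at sowing and foliar application to young plants 2–18 cm tall.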

[2] = tested on: ragweed (common ragweed, Ambrosia elatior)
Procedure, shortened: as §1

corn (Zea mays) = tested on: corn (Zea mays)
Procedure, shortened: as §1

[3] = tested on: lambsquarters (Chenopodium album)
Procedure, shortened: as §1

[4] = tested on: ryegrass, Italian (Italian ryegrass, Lolium multiflorum)
Procedure, shortened: as §1

[5] = tested on: barnyardgrass (Echinochloa crus-galli)
Procedure, shortened: as §1

[6] = tested on: wheat (winter wheat, Triticum aestivum)
Procedure, shortened: as §1

[7] = tested on: oilseed rape (Brassica napus)
Procedure, shortened: as §1

[8] = tested on: velvetleaf (Abutilon theophrasti)
Procedure, shortened: as §1

[9] = tested on: nutsedge, yellow (yellow nutsedge, Cyperus esculentus)
Procedure, shortened: as §1

soybean (Glycine max) = tested on: soybean (Glycine max)
Procedure, shortened: as §1

[10] = tested on: blackgrass (Alopecurus myosuroides)
Procedure, shortened: as §1

[11] = tested on: crabgrass, large (large crabgrass, Digitaria sanguinalis)
Procedure, shortened: as §1

[12] = tested on: galium (catchweed bedstraw, Galium aparine)
Procedure, shortened: as §1

[13] = tested on: foxtail, giant (giant foxtail, Setaria faberii)
Procedure, shortened: as §1

[14] = Postemergence, 31 g ai/ha, scale 0 to 100 (0 no effect, 100 complete control)
[15] = Postemergence, 62 g ai/ha, 0 to 100 scale (0 no effect, 100 complete control)
[16] = Postemergence, 250 g ai/ha, scale 0 to 100, 0 no effect, 100 complete control, 13 to 15 d
[17] = Preemergence, 31 g ai/ha, scale 0 to 100, 0 is no effect, 100 is complete control
[18] = Preemergence, 62 g ai/ha, scale 0 to 100, 0 is no effect, 100 is complete control
[19] = Preemergence, 125 g ai/ha, scale 0 to 100, 0 is no effect, 100 is complete control
[20] = Preemergence, 250 g ai/ha, scale 0 to 100, 0 no effect, 100 complete control
[21] = postemergence, 125 g ai/ha, scale 0 to 100, 0 no effect, 100 complete control

## CC(=O)Oc1c(C)nn(C)c(=O)c1-c1c(C)sc2ccc(C(F)(F)F)cc12 [Compound 132]
[1]; [14]
  Plant response rating, Pigweed: 50
[1]; [15]
  Pigweed plant response rating: 55
[1]; [16]
  Plant response rating, Pigweed: 65
[1]; [17]
  Plant response rating, Pigweed: 100
[1]; [18]
  Plant response rating, Pigweed: 100
[1]; [19]
  Plant response rating, Pigweed: 100
[1]; [20]
  Pigweed plant response rating: 100
[1]; [21]
  Pigweed plant response rating: 70
[2]; [14]
  Plant response rating, Ragweed: 65
[2]; [15]
  Ragweed plant response rating: 95
[2]; [16]
  Plant response rating, Ragweed: 98
[2]; [17]
  Plant response rating, Ragweed: 70
[2]; [18]
  Plant response rating, Ragweed: 85
[2]; [19]
  Plant response rating, Ragweed: 95
[2]; [20]
  Ragweed plant response rating: 100
[2]; [21]
  Ragweed plant response rating: 95
Corn (Zea mays); [14]
  Plant response rating, Corn: 0
Corn (Zea mays); [15]
  Corn plant response rating: 5
Corn (Zea mays); [16]
  Plant response rating, Corn: 10
Corn (Zea mays); [17]
  Plant response rating, Corn: 0
Corn (Zea mays); [18]
  Plant response rating, Corn: 0
Corn (Zea mays); [19]
  Plant response rating, Corn: 0
Corn (Zea mays); [20]
  Corn plant response rating: 10
Corn (Zea mays); [21]
  Corn plant response rating: 5
[3]; [14]
  Plant response rating, Lambsquarters: 90
[3]; [15]
  Lambsquarters plant response rating: 90
[3]; [16]
  Plant response rating, Lambsquarters: 100
[3]; [17]
  Plant response rating, Lambsquarters: 50
[3]; [18]
  Plant response rating, Lambsquarters: 60
[3]; [19]
  Plant response rating, Lambsquarters: 85
[3]; [20]
  Lambsquarters plant response rating: 100
[3]; [21]
  Lambsquarters plant response rating: 100
[4]; [14]
  Plant response rating, Ryegrass, Italian: 80
[4]; [15]
  Ryegrass, Italian plant response rating: 85
[4]; [16]
  Plant response rating, Ryegrass, Italian: 95
[4]; [17]
  Plant response rating, Ryegrass, Italian: 45
[4]; [18]
  Plant response rating, Ryegrass, Italian: 90
[4]; [19]
  Plant response rating, Ryegrass, Italian: 95
[4]; [20]
  Ryegrass, Italian plant response rating: 95
[4]; [21]
  Ryegrass, Italian plant response rating: 95
[5]; [14]
  Plant response rating, Barnyardgrass: 15
[5]; [15]
  Barnyardgrass plant response rating: 30
[5]; Postemergence, 125 g ai/ha, scale 0 to 100, 0 is no effect, 100 is complete control
  Plant response rating, Barnyardgrass: 25
[5]; [16]
  Plant response rating, Barnyardgrass: 25
[5]; [17]
  Plant response rating, Barnyardgrass: 0
[5]; [18]
  Plant response rating, Barnyardgrass: 5
[5]; [19]
  Plant response rating, Barnyardgrass: 35
[5]; [20]
  Barnyardgrass plant response rating: 45
[6]; [14]
  Plant response rating, Wheat: 0
[6]; [15]
  Wheat plant response rating: 0
[6]; [16]
  Plant response rating, Wheat: 0
[6]; [17]
  Plant response rating, Wheat: 25
[6]; [18]
  Plant response rating, Wheat: 40
[6]; [19]
  Plant response rating, Wheat: 20
[6]; [20]
  Wheat plant response rating: 50
[6]; [21]
  Wheat plant response rating: 0
[7]; [14]
  Plant response rating, Oilseed Rape: 5
[7]; [15]
  Oilseed Rape plant response rating: 10
[7]; [16]
  Plant response rating, Oilseed Rape: 40
[7]; [17]
  Plant response rating, Oilseed Rape: 70
[7]; [18]
  Plant response rating, Oilseed Rape: 85
[7]; [19]
  Plant response rating, Oilseed Rape: 30
[7]; [20]
  Oilseed Rape plant response rating: 90
[7]; [21]
  Oilseed Rape plant response rating: 5
[8]; [14]
  Plant response rating, Velvetleaf: 30
[8]; [15]
  Velvetleaf plant response rating: 40
[8]; [16]
  Plant response rating, Velvetleaf: 75
[8]; [17]
  Plant response rating, Velvetleaf: 60
[8]; [18]
  Plant response rating, Velvetleaf: 60
[8]; [19]
  Plant response rating, Velvetleaf: 90
[8]; [20]
  Velvetleaf plant response rating: 95
[8]; [21]
  Velvetleaf plant response rating: 65
[9]; [14]
  Plant response rating, Nutsedge, Yellow: 30
[9]; [15]
  Nutsedge, Yellow plant response rating: 55
[9]; [16]
  Plant response rating, Nutsedge, Yellow: 85
[9]; [17]
  Plant response rating, Nutsedge, Yellow: 10
[9]; [18]
  Plant response rating, Nutsedge, Yellow: 35
[9]; [19]
  Plant response rating, Nutsedge, Yellow: 45
[9]; [20]
  Nutsedge, Yellow plant response rating: 75
[9]; [21]
  Nutsedge, Yellow plant response rating: 75
Soybean (Glycine max); [14]
  Plant response rating, Soybean: 0
Soybean (Glycine max); [15]
  Soybean plant response rating: 0
Soybean (Glycine max); [16]
  Plant response rating, Soybean: 20
Soybean (Glycine max); [17]
  Plant response rating, Soybean: 0
Soybean (Glycine max); [18]
  Plant response rating, Soybean: 0
Soybean (Glycine max); [19]
  Plant response rating, Soybean: 0
Soybean (Glycine max); [20]
  Soybean plant response rating: 0
Soybean (Glycine max); [21]
  Soybean plant response rating: 0
[10]; [14]
  Plant response rating, Blackgrass: 5
[10]; [15]
  Blackgrass plant response rating: 5
[10]; [16]
  Plant response rating, Blackgrass: 45
[10]; [17]
  Plant response rating, Blackgrass: 20
[10]; [18]
  Plant response rating, Blackgrass: 45
[10]; [19]
  Plant response rating, Blackgrass: 40
[10]; [20]
  Blackgrass plant response rating: 50
[10]; [21]
  Blackgrass plant response rating: 25
[11]; [14]
  Plant response rating, Crabgrass, Large: 15
[11]; [15]
  Crabgrass, Large plant response rating: 15
[11]; [16]
  Plant response rating, Crabgrass, Large: 25
[11]; [17]
  Plant response rating, Crabgrass, Large: 0
[11]; [18]
  Plant response rating, Crabgrass, Large: 0
[11]; [19]
  Plant response rating, Crabgrass, Large: 10
[11]; [20]
  Crabgrass, Large plant response rating: 40
[11]; [21]
  Crabgrass, Large plant response rating: 10
[12]; [14]
  Plant response rating, Galium: 90
[12]; [15]
  Galium plant response rating: 95
[12]; [16]
  Plant response rating, Galium: 95
[12]; [17]
  Plant response rating, Galium: 90
[12]; [18]
  Plant response rating, Galium: 90
[12]; [19]
  Plant response rating, Galium: 90
[12]; [20]
  Galium plant response rating: 98
[12]; [21]
  Galium plant response rating: 95
[13]; [14]
  Plant response rating, Foxtail, Giant: 30
[13]; [15]
  Foxtail, Giant plant response rating: 40
[13]; [16]
  Plant response rating, Foxtail, Giant: 75
[13]; [17]
  Plant response rating, Foxtail, Giant: 40
[13]; [18]
  Plant response rating, Foxtail, Giant: 70
[13]; [19]
  Plant response rating, Foxtail, Giant: 85
[13]; [20]
  Foxtail, Giant plant response rating: 98
[13]; [21]
  Foxtail, Giant plant response rating: 60
